Results as given in patent publication US12286437B2, “Cardiac sarcomere inhibitors” (Cytokinetics, Inc., priority 2021, dated 2025).

Columns and labels:
[1] = tested on: bovine cardiac myofibrils; experiment: Myofibril assay (ATPase activity of skinned bovine cardiac myofibrils, PK/LDH-coupled); format: biochemical; settings: inhibition of steady-state ATPase of bovine cardiac myofibrils; CaCl2 for 50% or 75% activation
Procedure: To evaluate the effect of compounds on the ATPase activity of full-length cardiac myosin in the context of the native sarcomere, skinned myofibril assays were performed. Bovine cardiac myofibrils were obtained by homogenizing bovine cardiac left ventricular tissue in the presence of a detergent such as triton X-100. Such treatment removes membranes and a majority of the soluble cytoplasmic proteins but leaves intact the cardiac sarcomeric acto-myosin apparatus. Myofibril preparations retain the ability to hydrolyze ATP in a Ca^2+ regulated manner. ATPase activities of such myofibril preparations in the presence and absence of compounds were assayed at Ca^2+ concentrations activating to a defined fraction of the maximal rate (i.e., […], 75%). Small molecule agents were assessed for their ability to inhibit the steady-state ATPase activity of bovine cardiac myofibrils using pyruvate kinase and lactate dehydrogenase (PK/LDH)-coupled enzyme system. This assay regenerates myosin-produced ADP into ATP by oxidizing NADH, producing an absorbance change at 340 nm. Prior to testing small molecule agents, the bovine cardiac myofibrils were assessed for their calcium responsiveness and the calcium concentration that achieves either a 50% (pCa50) or 75% (pCa75) activation of the myofibril system was chosen as the final condition for assessing the inhibitory activity of the small molecule agents. All enzymatic activity was measured in a buffered solution containing 12 mM PIPES (piperazine-N,N′-bis(2-ethanesulfonic acid), 2 mM magnesium chloride at pH 6.8 (PM 12 buffer). Final assay conditions were 1 mg/mL of bovine cardiac myofibrils, 4 U/mL pyruvate kinase, 6 U/mL lactate dehydrogenase, 50 μM ATP, 0.1 mg/mL BSA (bovine serum albumin), 10 ppm antifoam, 1 mM DTT, 0.5 mM NADH, 1.5 mM PEP, 0.6 mM EGTA, and an amount of CaCl2 sufficient to achieve either 50% or 75% activation of the myofibril ATPase activity. Results for compounds tested are provided in Table A. Compounds tested were prepared in accordance with the synthetic procedures described herein.

[2] = Dog single dose pharmacokinetics; format: in vivo, beagle dogs; settings: male, beagle, plasma, IV, read-out: t½ (converted)
Procedure: Non-naïve male beagle dogs (8 months-3 years of age, body weight 8-13 kg) were used in this study. All animals for IV administration had free access to food and water; all animals for PO were fasted overnight prior to dosing and were fed approximately 6 hours after dosing. For the animals in PO group, pentagastrin (6.0 μg/kg, i.m.) was administrated 20 minutes before dosing PO formulation and 1.5 hours after the first pentagastrin dosing. The dosing volume was 0.024 mL/kg, the concentration was 250 μg/mL in DMSO/1 N NaOH/PBS. 10 mL of 0.001 N HCl was used to wash the gavage catheter for each animal. The IV dose solution was prepared in 10% DMA/50% PG/40% HPβCD solution (40% w/v aqueous HPβCD) at a concentration of 1.0 mg/mL. The oral dose suspension was prepared by suspending the compound in 0.5% HPMC/0.1% Tween 80 in distilled water at a concentration of 0.2 mg/mL. Concentrations of IV and PO doses were measured at the end of the study. PK parameters were calculated using the nominal dose values if the measured values were within 20% of the nominal values. Blood samples were collected by venipuncture of peripheral veins except the dosing vein at pre-dose, 5 15, 30 min, 1, 2, 4, 6, 8, 24 and 48 h post-dose. Blood samples were centrifuged and resultant plasma was frozen for bioanalysis. Plasma samples were stored at −80° C. before analysis. Plasma samples were analyzed for compound concentrations using the LC/MS/MS method. Briefly, a 50 μL aliquot of each plasma sample was mixed with 100 μL of acetonitrile that contained an internal standard. The mixture was vortexed and centrifuged. Ten (10) μL of the resulting solution was injected onto a reverse-phase C18 column and the resultant peaks detected on a LC/MS/MS equipped with a turbo ionspray ionization source. Sample concentrations below the limit of quantification (BLQ) were treated as zero for PK calculations. PK parameters were estimated from individual animals using noncompartmental analysis of the concentration-time data (Phoenix WinNonLin software, version 64; Pharsight, Mountain View, CA). The elimination rate constant (k) was calculated as the absolute value of the slope of the linear regression of logarithm (log) of the concentration versus time for the last three data points of the concentration-time profiles. Apparent elimination half-life (t1/2) values were calculated as ln(2)/k. Area under the concentration-time curve (AUC) values were estimated using linear trapezoidal method. AUCt values were calculated from the dosing time to the last measurable concentration. AUC∞ values were calculated as the sum of the corresponding AUCt and the ratio of the last detectable concentration divided by k. Plasma clearance (CL) was calculated from Dose/AUC∞. Mean resident time extrapolated to infinity (MRT∞) was estimated by moment analysis. Vss was calculated from MRT∞×CL. Maximum concentration (Cmax) and time to reach Cmax (tmax) were recorded as observed. As this was a cross-over study, bioavailability was calculated dAUC∞,po/dAUC∞,iv×100% where dAUC was the dose normalized AUC value from the same animal given IV and PO dose. Data for compounds tested are provided in Table D. Compounds tested were prepared in accordance with the synthetic procedures described herein.

[3] = Projected single-dose CL and Vss values in humans (allometric scaling of mouse, rat, dog, monkey IV PK); settings: human, projected by allometric scaling from single-dose IV PK
Procedure: Allometric scaling for the prediction of human Clearance and Volume of Distribution was based on interspecies simple allometric scaling of mouse, rat, dog, and cynomolgus monkey intravenous pharmacokinetic parameters (Boxenbaum, J Pharmacokinet Biopharm 10:201-27, 1982). Prediction of human CL was performed by extrapolating pre-clinical species' plasma intravenous clearance. The ‘rule of exponents’ (Mahmood & Balian, Life Sci 59:579-85, 1996) was examined in this prediction, where it has been proposed that, when the exponent of simple allometry lies between […] and 0.99, a correction factor based on Maximum Life Span (MLP) of this species can be applied and, when the exponent of simple allometry is greater than 1.0, a correction factor based on Brain Weight (BrW) can be applied, or a protein binding correction can be applied when available. In a similar manner, simple allometric scaling was employed to predict human Volume of Distribution. This method has been used successfully for varied drugs (Ward & Smith, Drug Metab Dispos 32:612-19, 2004; McGinnity et al., Curr Drug Metab 8:463-79, 2007).

[4] = Dog cassette dosing pharmacokinetics; format: in vivo, beagle dogs; settings: male, beagle, plasma, IV; for Vd: read-out: Vss; for half-life: read-out: t½ (converted)
Procedure: Non-naïve male beagle dogs (8 months to 3 years of age, body weight 8-14 kg) sourced from Jiangsu Johnsen Bioresource CO. and/or Beijing Rixinkeji CO., LTD and/or Beijing Marshall Biotechnology CO., LTD were used in this study. All animals for IV administration had free access to food and water. The IV dose solution was prepared in 10% DMA/50% PG/40% HPβCD solution (40% w/v aqueous HPβCD) at a concentration of 0.2 mg/mL. Concentrations of IV dose was measured at the end of the study. PK parameters were calculated using the nominal dose values if the measured values were within 20% of the nominal values. Blood samples were collected by venipuncture of peripheral veins except the dosing vein at pre-dose, 5 15, 30 min, 1, 2, 4, 6, 8 and 24 h post-dose. Blood samples were centrifuged and resultant plasma was frozen for bioanalysis. Plasma samples were stored at −80° C. before analysis. Plasma samples were analyzed for compound concentrations using the LC/MS/MS method. Briefly, a 50 μL aliquot of each plasma sample was mixed with 100 μL of acetonitrile that contained an internal standard. The mixture was vortexed and centrifuged. Ten (10) μL of the resulting solution was injected onto a reverse-phase C18 column and the resultant peaks detected on a LC/MS/MS equipped with a turbo ionspray ionization source. Sample concentrations below the limit of quantification (BLQ) were treated as zero for PK calculations. PK parameters were estimated from individual animals using noncompartmental analysis of the concentration-time data (Phoenix WinNonLin software, version 64; Pharsight, Mountain View, CA). The elimination rate constant (k) was calculated as the absolute value of the slope of the linear regression of logarithm (log) of the concentration versus time for the last three data points of the concentration-time profiles. Apparent elimination half-life (t1/2) values were calculated as ln(2)/k. Area under the concentration-time curve (AUC) values were estimated using linear trapezoidal method. AUCt values were calculated from the dosing time to the last measurable concentration. AUC∞ values were calculated as the sum of the corresponding AUCt and the ratio of the last detectable concentration divided by k. Plasma clearance (CL) was calculated from Dose/AUC∞. Mean resident time extrapolated to infinity (MRT∞) was estimated by moment analysis. Vss was calculated from MRT∞×CL. Maximum concentration (Cmax) and time to reach Cmax (tmax) were recorded as observed. As this was a cross-over study, bioavailability was calculated dAUC∞,po/dAUC∞,iv×100% where dAUC was the dose normalized AUC value from the same animal given IV and PO dose. Data for compounds tested are provided in Table G. Compounds tested were prepared in accordance with the synthetic procedures described herein.

[5] = Rat single dose pharmacokinetics; format: in vivo, Sprague Dawley rats; settings: male, Sprague Dawley, plasma, IV; for Vd: read-out: Vss
Procedure: Male Sprague Dawley rats were obtained from Zhejiang Vital River Laboratory Animal Technology Co., Ltd. The animals in IV group had free access to water and food. The animals in PO group were fasted overnight before dosing and provided with food 2 hours post dosing. The IV dose solution was prepared in 10% DMA/50% PG/40% HPβCD solution (40% w/v aqueous HPβCD) at a concentration of 1 mg/mL. The oral dosing suspension was prepared by suspending Test Article in 0.5% HPMC/0.1% Tween 80 in water at a concentration 0.2 mg/mL. Concentrations of IV and PO doses were measured at the end of the study. Pharmacokinetic parameters were calculated using the nominal dose values if the measured values were within 20% of the nominal values. Three rats were dosed IV via a bolus injection via caudal vein. Three rats per dose group were dosed by oral gavage. Blood samples were collected from the jugular vein cannula at predose, 5 (IV only), 15, 30 minutes, and 1, 2, 4, 6, and 24 hours post-dose. Blood volumes were replaced with an equal amount of sterile 0.9% saline. Blood samples were centrifuged and the collected plasma was stored at −80° C. for subsequent analysis. Plasma samples were analyzed for Test Article concentrations using a LC/MS/MS method. Briefly, a 50 μL aliquot of each plasma sample was mixed with 100 μL of acetonitrile that contained an internal standard. The mixture was vortexed and centrifuged. Ten (10) […] of the resulting solution was injected onto a reverse-phase C18 column and the resultant peaks detected on a LC/MS/MS equipped with a turbo ionspray ionization source. Sample concentrations below the limit of quantification (BLQ) were treated as zero for pharmacokinetic calculations. Pharmacokinetic parameters were estimated from individual animals using noncompartmental analysis of the concentration-time data (Phoenix WinNonLin software, version 64; Pharsight, Mountain View, CA). The elimination rate constant (k) was calculated as the absolute value of the slope of the linear regression of logarithm (log) of the concentration versus time for the last three data points of the concentration-time profiles. Apparent elimination half-life (t1/2) values were calculated as ln(2)/k. Area under the concentration-time curve (AUC) values were estimated using linear trapezoidal method. AUCt values were calculated from the dosing time to the last measurable concentration. AUC∞ values were calculated as the sum of the corresponding AUCt and the ratio of the last detectable concentration divided by k (AUCt-∞). Plasma clearance (CL) was calculated from Dose/AUC∞. Mean resident time (MRT) was estimated by moment analysis. Volume of distribution at steady state (Vss) was calculated from MRT∞×CL. Maximum concentration (Cmax) and time to reach Cmax (tmax) were recorded as observed. Bioavailability was calculated from the ratio of dose normalized AUC∞,po of individual rats/mean dAUC∞,iv×100% where dAUC was the dose normalized AUC value. Compounds tested were prepared in accordance with the synthetic procedures described herein.

[6] = Monkey cassette dosing pharmacokinetics; format: in vivo; settings: IV

Row | CDMF IC15 [1] | half-life [2] | Projected CL [3] | Projected t½ [3] | Projected Vss [3] | clearance [4] | Vd [4] | half-life [4] | clearance [5] | half-life [5] | Vd [5] | t l/2 [6] | clearance ([6]; male, plasma) | Vd ([6]; male, plasma, read-out: Vss) | Structure (SMILES)
1 | 1.8 µM | 39.2 h | 1.44 mL/min/kg | 38.7 h | – | – | – | – | – | – | – | – | – | – | O=CN1CC2(C1)C(=O)N(c1ccc(F)cc1F)CC(=O)N2Cc1ccc(Cl)cc1 [Comparator A, 5-(4-chlorobenzyl)-8-(2,4-difluorophenyl)-6,9-dioxo-2,5,8-triazaspiro[3.5]nonane-2-carbaldehyde, reference compound]
2 | 1.1 µM | 23.7 h | 0.96 mL/min/kg | 62 h | 5.16 L/kg | – | – | – | – | – | – | – | – | – | CC(=O)N1CC2(C1)C(=O)N(c1ccc(C#N)cc1F)CC(=O)N2Cc1ccc(C(F)(F)F)cc1 [Comparator D, 4-(2-acetyl-6,9-dioxo-5-(4-(trifluoromethyl)benzyl)-2,5,8-triazaspiro[3.5]nonan-8-yl)-3-fluorobenzonitrile]
3 | 0.7 µM | – | – | – | – | 7.16 mL/min/kg | 6.9 L/kg | 13.1 h | 78.5 mL/min/kg | 2.6 h | 14.7 L/kg | – | – | – | C[C@H]1CC[C@H](N2CC(=O)N(Cc3ccc(Cl)c(F)c3)C3(CN(C(N)=O)C3)C2=O)CC1 [Compound 3, 5-(4-chloro-3-fluorobenzyl)-8-((1r,4r)-4-methylcyclohexyl)-6,9-dioxo-2,5,8-triazaspiro[3.5]nonane-2-carboxamide]
4 | 1.6 µM | – | – | – | – | 13.9 mL/min/kg | 3.08 L/kg | 3.65 h | 27.4 mL/min/kg | 0.925 h | 1.64 L/kg | 1.59 h | 15.2 mL/min/kg | 1.88 L/kg | CC(C)N1CC(=O)N(Cc2ccc(F)c(Cl)c2)C2(CN(c3cccnn3)C2)C1=O [Compound 9, 5-(3-chloro-4-fluorobenzyl)-8-isopropyl-2-(pyridazin-3-yl)-2,5,8-triazaspiro[3.5]nonane-6,9-dione]
